Experimental data as given in article PMC9184620, “TAS1553, a small molecule subunit interaction inhibitor of ribonucleotide reductase, exhibits antitumor activity by causing DNA replication stress” (Communications Biology, 2022).
Where two headings read alike, the source gives them in different places. One block for each compound: values may come before it. Ends that are not written are not given here.

What was measured:
[1] = tested on: HCC38 xenograft; assay: Antitumor activity in mice bearing HCC38 xenografts; type: in vivo, mouse
Procedure: Next, we evaluated the antitumor activity of a high-dose administration of TAS1553 and cytarabine in rats bearing MV-4-11 xenografts. […] The rats were treated with cytarabine for 5 days at 16 and 32 mg/kg. […] In addition to the hematologic tumor, we evaluated the antitumor activity of TAS1553 in mice implanted with HCC38 cell line as a solid tumor model. […] Finally, TAS1553 was evaluated for its survival benefit in a mouse model. To achieve this, we established mice bone marrow cells harboring the human MLL-AF9 fusion gene, which is known as a driver gene for AML in humans as well as mice[48]. Mice were transplanted with the cells through the tail vein and the treatment with TAS1553 was started 11 days post-implantation.
For the subcutaneous implantation model of MV-4-11, F344/NJcl-rnu/rnu rats were irradiated with X-ray (4 Gy) to improve the efficiency of xenograft implantation. Two days after X-ray irradiation, MV-4-11 cells suspended in PBS with 50 vol% Matrigel were inoculated into the rats (2 × 10^7 cells/animal). In the mice subcutaneous implantation model, HCC38 cells suspended same as above were inoculated into male BALB/cAJcl-nu/nu mice (1 × 10^7 cells /body). The animals were randomized and administered with the compound for 14 days. Antitumor activity and body weight change were evaluated as previously reported. Dunnett test using the SAS software package in EXSUS (CAC Croit) was used to compare the tumor volume (P < 0.05).

[2] = molecular target: T1, human R1 (Homo sapiens, UniProt P23921); assay: Fluorescence polarization binding assay (displacement of TAMRA-labeled P7 from R1); settings: for IC50: R1 and TAMRA-labeled P7, mean ± SD, three independent experiments, read-out: IC50, fluorescent polarization binding assay
T1 construct: made in house; host or cells: Escherichia coli
T1 sequence (P23921 1-792): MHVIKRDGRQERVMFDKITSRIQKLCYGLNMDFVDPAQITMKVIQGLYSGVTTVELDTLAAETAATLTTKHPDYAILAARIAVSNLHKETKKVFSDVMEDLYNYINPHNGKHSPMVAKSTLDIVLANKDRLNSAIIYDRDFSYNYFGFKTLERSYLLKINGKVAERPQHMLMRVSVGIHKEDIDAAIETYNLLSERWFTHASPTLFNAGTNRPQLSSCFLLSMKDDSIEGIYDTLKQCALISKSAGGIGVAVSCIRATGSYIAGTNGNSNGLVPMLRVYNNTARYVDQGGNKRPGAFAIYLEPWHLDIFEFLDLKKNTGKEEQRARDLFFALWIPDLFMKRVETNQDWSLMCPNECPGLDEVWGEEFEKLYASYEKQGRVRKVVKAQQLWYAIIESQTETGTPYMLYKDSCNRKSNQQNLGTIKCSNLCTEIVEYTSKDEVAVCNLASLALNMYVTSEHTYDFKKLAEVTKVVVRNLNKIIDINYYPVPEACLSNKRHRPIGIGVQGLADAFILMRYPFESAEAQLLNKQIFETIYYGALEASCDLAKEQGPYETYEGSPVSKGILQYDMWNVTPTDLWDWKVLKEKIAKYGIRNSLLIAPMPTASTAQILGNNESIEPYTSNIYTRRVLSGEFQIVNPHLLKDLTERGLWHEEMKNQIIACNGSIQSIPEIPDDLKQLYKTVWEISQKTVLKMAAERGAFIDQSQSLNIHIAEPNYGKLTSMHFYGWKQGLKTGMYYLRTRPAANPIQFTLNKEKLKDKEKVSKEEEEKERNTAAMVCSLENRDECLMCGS
Description: Fig. 1 Design and identification of the small molecule compound TAS1553 blocking the interaction between RNR subunits. a A schematic representation of the fluorescent polarization binding assay. TAMRA-labeled P7 heptapeptide was used as a probe. […] Data are presented as mean ± SD obtained from three independent experiments. c Chemical structures of compound 1 and TAS1553. d Superposition of the X-ray co-crystal structure of human RRM1 (green) with compound 1 (magenta) (PDB ID: 6L3R) to the previously determined X-ray co-crystal structure of Saccharomyces cerevisiae RNR1 (cyan) with P7 peptide (yellow) (PDB ID: 2ZLF). The residue numbers and protein surface shown here are those of hRRM1. e SPR analysis for the binding of TAS1553 to human R1 captured onto Series S Sensor Chip NTA. […] IC50 (mean ± SD) is determined from three independent experiments performed in triplicate.
TAMRA-labeled P7 peptide was obtained from Peptide Institute, Inc. to be used as a fluorescent probe in the FP binding assay. The final reaction mixture was composed of 50 mmol/L Tris-Cl (pH 8.0), 10 mmol/L DTT, 10 nmol/L TAMRA-P7, 32 ng/mL His-R1, and 1% DMSO with or without test compound. The assay was performed for 120 min at room temperature with protection from light, after which FP of each sample was measured with a PHERAstarFS. IC50 values were calculated using the SAS software package in EXSUS (CAC Croit).

[3] = molecular target: T2, RNR (R1 and R2 recombinant proteins) (Homo sapiens, UniProt P23921); assay: RNR assay (formation of dCDP from CDP); type: biochemical
T2 construct: made in house; host or cells: Escherichia coli
T2 sequence (P23921 1-792): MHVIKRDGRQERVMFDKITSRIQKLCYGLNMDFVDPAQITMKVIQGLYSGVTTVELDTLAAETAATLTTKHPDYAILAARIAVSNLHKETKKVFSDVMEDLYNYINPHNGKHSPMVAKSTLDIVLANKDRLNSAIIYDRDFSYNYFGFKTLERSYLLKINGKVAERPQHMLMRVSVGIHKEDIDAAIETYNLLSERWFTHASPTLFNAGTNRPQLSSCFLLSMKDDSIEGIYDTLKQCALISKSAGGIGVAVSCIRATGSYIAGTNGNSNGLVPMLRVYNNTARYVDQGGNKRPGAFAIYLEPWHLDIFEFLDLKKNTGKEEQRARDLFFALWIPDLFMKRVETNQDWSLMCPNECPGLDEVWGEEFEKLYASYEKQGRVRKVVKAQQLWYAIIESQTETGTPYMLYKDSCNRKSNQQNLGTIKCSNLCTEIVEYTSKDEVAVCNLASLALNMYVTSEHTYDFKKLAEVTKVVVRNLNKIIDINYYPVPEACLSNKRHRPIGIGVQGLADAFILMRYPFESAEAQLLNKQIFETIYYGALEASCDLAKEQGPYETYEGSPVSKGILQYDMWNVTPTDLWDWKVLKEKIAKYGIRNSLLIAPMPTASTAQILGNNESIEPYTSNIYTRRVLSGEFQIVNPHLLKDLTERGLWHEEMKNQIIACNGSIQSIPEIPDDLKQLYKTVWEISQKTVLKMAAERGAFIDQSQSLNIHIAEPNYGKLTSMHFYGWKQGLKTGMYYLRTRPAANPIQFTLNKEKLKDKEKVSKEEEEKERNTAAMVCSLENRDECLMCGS
Procedure: The binding affinity of TAS1553 to the R1 subunit was investigated using surface plasmon resonance (SPR) binding analysis. […] Next, we evaluated the inhibitory effect of TAS1553 against the enzymatic activity of RNR, consisting of R1 and R2 recombinant proteins. RNR activity was determined by its ability to reduce cytidine diphosphate (CDP) to deoxycytidine diphosphate (dCDP), based on a previous report. […] In addition to the inhibitory effect on RNR, TAS1553 was evaluated in a Eurofins LeadProfilingScreen panel assay including 68 proteins, such as ion channels, transporters, nuclear receptors, and G protein-coupled receptors, to examine its potential adverse activity.
The inhibition of RNR activity by the test compound was evaluated by measuring the formation of dCDP from CDP, as reported previously. The assay was performed for 30 min at 37 °C in a reaction mixture composed of 50 mmol/L HEPES, 4 mmol/L magnesium acetate, 100 mmol/L KCl, 6 mmol/L DTT, 2 mmol/L ATP, 0.24 mmol/L NADPH, 10.0 µmol/L CDP, 0.1 mg/mL BSA, 8.0 µg/mL His-R1, 2.4 µg/mL His-R2, and 1% DMSO with or without test compound. The reaction was discontinued by heat treatment at 95 °C for 5 min. The amount of dCDP after the reaction was quantified by a prominence HPLC system and LabSolutions software (SHIMADZU CORPORATION). Separations were performed at 265 nm in a Shim-pack XR-ODS column of particle size 2.2 μm (100 × 3.0 mm, SHIMADZU GLC Ltd.). Overall, 5 µL of each sample was injected, and chromatography was performed at 40 °C. Mobile A was composed of 10 mmol/L potassium dihydrogenphosphate, 10 mmol/L tetrabutylammonium hydroxide, 0.25% methanol and 8 mmol/L HCl. Mobile B was composed of 50 mmol/L potassium dihydrogenphosphate, 5.6 mmol/L tetrabutylammonium hydroxide, and 30% methanol. The gradient was as follows: 52–60% B for 9 min, 60–99% B for 1 min, 99% B for 5 min, 99–52% B for 1 min, and 52% B for 5 min. The flow rate was 0.5 mL/min. The experiment was performed in triplicates. IC50 values were calculated using the SAS software package.

Compound: CC(=O)O[C@H]1C(=O)[C@@]2(C)[C@H]([C@H](OC(=O)c3ccccc3)[C@]3(O)C[C@H](OC(=O)[C@H](O)[C@@H](NC(=O)c4ccccc4)c4ccccc4)C(C)=C1C3(C)C)[C@]1(OC(C)=O)CO[C@@H]1C[C@@H]2O [paclitaxel]
T/C ratio ([1]; 20 mg/kg intravenously once a week): 63.6%

Compound: CCCCCOC(=O)Nc1nc(=O)n([C@@H]2O[C@H](C)[C@@H](O)[C@H]2O)cc1F [capecitabine]
T/C ratio ([1]; 539 mg/kg oral once daily for 14 days (maximum tolerated dose)): 67.9%

Compound: Ac-FTLDADF [P7, N-AcFTLDADF]
IC50 [3]: 14.5 ± 1 µM

Next, values leading:

potency relative to Fmoc-L-phenylalanine (binding inhibition) ([2]; FP binding IC50 ratio): ~ 2000 fold | IC50 [2]: 0.527 ± 0.021 µM
Compound: C[C@H](c1cccc2ccccc12)[C@H](NS(=O)(=O)c1ccc(Br)cc1)c1n[nH]c(=O)o1 [compound 1, 4-bromo-N-[(1S,2R)-2-(naphthalen-1-yl)-1-(5-oxo-4,5-dihydro-1,3,4-oxadiazol-2-yl)propyl]benzenesulfonamide]

IC50 ([3]; CDP to dCDP, mean ± SD, read-out: Enzyme IC50): 6.76 ± 0.71 µM
Compound: O=C(Nc1nc(-c2ccc(O)c(O)c2)c(-c2ccccc2)s1)c1ccc(O)c(O)c1 [COH29]

IC50 [2]: 3340 ± 540 µM
Compound: CN(C)c1cccc2c(S(=O)(=O)N[C@@H](Cc3ccccc3)C(=O)O)cccc12 [Dansyl-L-phenyl alanine, reference compound]
